Laboratory results reported in publication PMC10354055, “An optimized Nurr1 agonist provides disease-modifying effects in Parkinson’s disease models” (Nature Communications, 2023).
“And” between values parts separate entries of the source, which are not always exact repeats. Identical values can stand only once. Like-named read-outs stand apart in the source and are kept apart here.

Experiments:
Nurr1-LBD point mutants [1] = biological target: T1, Nurr1-LBD point mutants (Mus musculus, UniProt Q06219, A586F); assay: Luciferase assay with point-mutants of Nurr1-LBD, SK-N-BE(2)C cells;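 further: Firefly luciferase normalized to beta-galactosidase activity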; type: cell-based; details: Fig. 1g, A586F
T1 construct: expressed in transfected cells; host or cells: SK-N-BE(2)C
Protocol: (§1) Nurr1 transactivity was normalized to β-galactosidase activity.
(§2) Nurr1 mutants were generated using the QuikChange ǁ XL site-directed mutagenesis kit (Agilent Technologies) according to the manufacturer’s instruction. Mutagenesis reactions were carried out on the plasmid of mouse Nurr1 cloned into pcDNA3.1 backbone, and then verified by sequencing.

Nurr1-LBD point mutants [2] = biological target: T2, Nurr1-LBD point mutants (Mus musculus, UniProt Q06219, I573A); assay: as above; type: cell-based; details: Fig. 1g, I573A
T2 construct: expressed in transfected cells; host or cells: SK-N-BE(2)C
Protocol: as §1, §2

Nurr1-LBD point mutants [3] = biological target: T3, Nurr1-LBD point mutants (Mus musculus, UniProt Q06219, I588A); assay: as above; type: cell-based; details: Fig. 1g, I588A
T3 construct: expressed in transfected cells; host or cells: SK-N-BE(2)C
Protocol: as §1, §2

Nurr1-LBD point mutants [4] = biological target: T4, Nurr1-LBD point mutants (Mus musculus, UniProt Q06219, K590A); assay: as above; type: cell-based; details: Fig. 1g, K590A
T4 construct: expressed in transfected cells; host or cells: SK-N-BE(2)C
Protocol: as §1, §2

Nurr1-LBD point mutants [5] = biological target: T5, Nurr1-LBD point mutants (Mus musculus, UniProt Q06219, L593A); assay: as above; type: cell-based; details: Fig. 1g, L593A
T5 construct: expressed in transfected cells; host or cells: SK-N-BE(2)C
Protocol: as §1, §2

Nurr1-LBD point mutants [6] = biological target: T6, Nurr1-LBD point mutants (Mus musculus, UniProt Q06219, S441A); assay: as above; type: cell-based; details: Fig. 1g, S441A
T6 construct: expressed in transfected cells; host or cells: SK-N-BE(2)C
Protocol: as §1, §2

N27-A cells = assay: Autophagic flux, Western blot LC3B and p62, N27-A cells; type: cell-based, rat; details: for Relative LC3B-II experession (normalized to β-actin): individual replicates; for autophagic flux (in words): N27-A
Protocol: (§3) Experiments were confirmed by duplicate measurements of the same sample. Quantification of immunoreactive bands was performed using ImageJ software (NIH, Bethesda, MD, USA) and expressed as a relative ratio against β-actin.
The band intensities were quantified using ImageJ and normalized against β-actin.

[7] = system: AAV-αSyn-induced male mice; assay: Western blot of human-αSyn in SNpc, AAV-αSyn-injected mice; type: in vivo, mouse
Protocol: as §3
Adeno-associated viruses (AAVs) expressing GFP only or αSyn (wild-type or A53T) were kindly provided by Dr. Yoon Seong Kim from the University of Central Florida. Recombinant AAV vectors were produced using modified pAAV-IRES-hrGFP (Agilent) to express wild-type and mutant human αSyn under control of the CMV promoter. Viral particles (AAV2) were produced at the University of Iowa Viral Vector Core according to standard operating procedures (https://medicine.uiowa.edu/vectorcore/). Male C57BL/6 mice (8-10 weeks, 25-30 g; Jackson Laboratories) were randomly assigned to 7 groups including empty vector (GFP) + VEH, wild-type αSyn (αSyn^WT) + VEH, mutant αSyn (αSyn^A53T) + VEH, αSyn^WT + CQ, αSyn^A53T + CQ, αSyn^WT + 4A7C-301 and αSyn^A53T + 4A7C-301 (n = 8 per group). AAV vectors were delivered into the substantia nigra unilaterally by stereotaxic surgery. […] CQ (40 mg/kg/day) or 4A7C-301 (5 mg/kg/day) administration was started 4 weeks after AAV vector injections and continued for […] before sacrifice at 8 weeks after surgery.

[8] = BBB permeability assay, plasma and brain LC-MS/MS after oral administration; type: in vivo, rat;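 on plasma: oral dosing solution 2 mg/mL in saline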
Protocol: Final dose of […] 4A7C-301 dissolved in saline was orally administrated to SD rats (male, 7-9 weeks, n = 3 per group). To measure the 4A7C-301 concentration in the brain, rats were fully exsanguinated to remove residual blood prior to brain collection. Brain and blood samples were collected at 0.25, 0.5, 1, 2, 4, 6, 8, and 24 h after administration. A robust LC-MS/MS method was developed with the lower limit of quantification (LLOQ) of 1 ng/mL and 0.5 ng/mL for the quantification of 4A7C-301 in plasma and brain, respectively. The accuracy of all accepted QC samples of 4A7C-301 at low, middle, and high concentration levels met the acceptance criteria. Isolated brains were homogenized in PBS as brain weight (g) to PBS volume (mL) ratio 1:3. The desired serial concentrations of working solutions were achieved by diluting stock solution of analyte with 50% acetonitrile in water solution. 5 µL of working solutions (5, 10, 20, 50, 100, 500, 1000, 5000 ng/mL) were added to 50 μl of male SD rat blank brain homogenate to achieve calibration standards of 0.5 ~ 500 ng/mL (0.5, 1, 2, 5, 10, 50, 100, 500 ng/mL) in a total volume of 55 μl. Four quality control samples at 1.5 ng/mL, 3 ng/mL, 50 ng/mL and 400 ng/mL for brain homogenate were prepared independently of those used for the calibration curves. These QC samples were prepared on the day of analysis in the same way as calibration standards. 55 μl of standards, 55 μl of QC samples and 55 μl of unknown samples (50 µL of brain homogenate with 5 µL of blank solution) were added to 200 μl of acetonitrile containing IS mixture for precipitating protein, respectively. Then the samples were vortexed for 30 seconds. After centrifugation at 4 °C, 4000 x g for 15 min, the supernatant was diluted 5 times with water. 25 µl of diluted supernatant was injected into the LC-MS/MS system (AB API 5500 + LC-MS/MS instruments (Serial No. EX224682008)) for quantitative analysis. To measure the 4A7C-301 concentration in the plasma, serum samples were obtained from the collected blood and analyzed by LC-MS/MS system as indicated above.

[9] = time 00:15:00, individual replicates
[10] = time 0:30:00, individual replicates
[11] = time 1:00:00, individual replicates
[12] = time 2:00:00, individual replicates
[13] = time 4:00:00, individual replicates
[14] = time 6:00:00, individual replicates
[15] = time 8:00:00, individual replicates
[16] = time 24:00:00, individual replicates

T1 sequence (Q06219 whole entry A586F, the tested form may be a part): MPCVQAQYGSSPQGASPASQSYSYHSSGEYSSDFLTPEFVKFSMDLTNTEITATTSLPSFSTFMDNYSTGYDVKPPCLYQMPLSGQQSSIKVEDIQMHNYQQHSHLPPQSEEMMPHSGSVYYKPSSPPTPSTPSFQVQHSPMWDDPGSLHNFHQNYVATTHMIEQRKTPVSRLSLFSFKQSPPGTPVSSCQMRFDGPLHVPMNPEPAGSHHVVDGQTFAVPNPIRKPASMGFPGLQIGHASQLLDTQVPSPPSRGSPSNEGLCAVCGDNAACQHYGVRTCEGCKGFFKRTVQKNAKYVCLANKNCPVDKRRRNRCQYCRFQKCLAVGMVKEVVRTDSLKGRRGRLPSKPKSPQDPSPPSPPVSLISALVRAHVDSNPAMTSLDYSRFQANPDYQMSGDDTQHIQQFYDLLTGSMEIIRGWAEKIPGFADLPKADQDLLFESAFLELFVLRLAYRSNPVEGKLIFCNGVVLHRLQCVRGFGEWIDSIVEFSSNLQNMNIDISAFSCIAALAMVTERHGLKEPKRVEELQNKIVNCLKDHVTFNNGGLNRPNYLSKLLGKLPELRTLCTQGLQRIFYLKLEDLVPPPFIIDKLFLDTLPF
T2 sequence (Q06219 whole entry I573A, the tested form may be a part): as the sequence (Q06219 whole entry A586F, the tested form may be a part) above, with I573A, F586A counted along it
T5 sequence (Q06219 whole entry L593A, the tested form may be a part): as the sequence (Q06219 whole entry A586F, the tested form may be a part) above, with F586A, L593A counted along it
T3 sequence (Q06219 whole entry I588A, the tested form may be a part): as the sequence (Q06219 whole entry A586F, the tested form may be a part) above, with F586A, I588A counted along it
T6 sequence (Q06219 whole entry S441A, the tested form may be a part): as the sequence (Q06219 whole entry A586F, the tested form may be a part) above, with S441A, F586A counted along it
T4 sequence (Q06219 whole entry K590A, the tested form may be a part): as the sequence (Q06219 whole entry A586F, the tested form may be a part) above, with F586A, K590A counted along it

For `CCN1CCN(c2cc(N3CCN(CC)CC3)nc(NCCNc3ccnc4cc(Cl)ccc34)n2)CC1` [4A7C-301, N^1-(4,6-bis(4-ethylpiperazin-1-yl)pyrimidin-2-yl)-N^2-(7-chloroquinolin-4-yl)ethane-1,2-diamine], the “Luciferase activity (fold)” value (Nurr1-LBD point mutants [1]) was 16.9378 fold and 18.2618 fold and 17.9787 fold and 16.7737 fold, the “Luciferase activity (fold)” value (Nurr1-LBD point mutants [2]) was 1.906 fold and 2.068 fold and 2.015 fold and 1.962 fold and the “Luciferase activity (fold)” value (Nurr1-LBD point mutants [3]) was 2.735 fold and 2.747 fold and 2.797 fold and 2.7361 fold. The “Luciferase activity (fold)” value (Nurr1-LBD point mutants [4]) was 9.662 fold and 10.9664 fold and 10.3366 fold and 9.703 fold, the “Luciferase activity (fold)” value (Nurr1-LBD point mutants [5]) was 5.7 fold and 5.711 fold and 5.709 fold and 5.928 fold and the “Luciferase activity (fold)” value (Nurr1-LBD point mutants [6]) was 8.067 fold and 8.586 fold and 8.69 fold and 8.14 fold. For the same compound, the “Relative LC3B-II experession (normalized to β-actin)” value (N27-A cells; Figure 3f, w/ MPP+, 0h) was 0.779 and 0.690 and 0.799, the “Relative LC3B-II experession (normalized to β-actin)” value (N27-A cells; Figure 3f, w/ MPP+, 4h) was 1.160 and 0.971 and 1.153 and the “Relative LC3B-II experession (normalized to β-actin)” value (N27-A cells; Figure 3f, w/o MPP+, 0h) was 0.728 and 0.654 and 0.714. The “Relative LC3B-II experession (normalized to β-actin)” value (N27-A cells; Figure 3f, w/o MPP+, 4h) was 0.866 and 0.789 and 0.873, the “Relative LC3B-II experession (normalized to β-actin)” value (N27-A cells; Figure 3g, w/ MPP+, 0h) was 1.116 and 1.094 and 1.285 and the “Relative LC3B-II experession (normalized to β-actin)” value (N27-A cells; Figure 3g, w/ MPP+, 4h) was 0.639 and 0.745 and 0.861. The “Relative LC3B-II experession (normalized to β-actin)” value (N27-A cells; Figure 3g, w/o MPP+, 0h) was 1.157 and 1.166 and 1.326, the “Relative LC3B-II experession (normalized to β-actin)” value (N27-A cells; Figure 3g, w/o MPP+, 4h) was 0.499 and 0.504 and 0.579 and the “autophagic flux (in words)” value (N27-A cells; MPP+ 1 mM) was “significantly restored autophagy”. The “autophagic flux (in words)” value (N27-A cells; without MPP+) was “proceeded”, the “accumulation of αSyn (in words)” value [7] was “significantly diminished” and the “brain permeability (in words)” value ([8]; SD rats, oral, 20 mg/kg, plasma and brain homogenates) was “penetrated into the brain well”. The concentration at […] ([8]; male, SD, rat, brain, oral, 2 mg/mL, time 00:15:00, individual replicates, read-out: Brain) was 0 ng/g, the concentration at 0.5 h ([8]; male, SD, rat, brain, oral, 2 mg/mL, time 0:30:00, individual replicates, read-out: Brain) was 0 ng/g and the concentration at 8 h ([8]; male, SD, rat, brain, oral, 2 mg/mL, time 8:00:00, individual replicates) was 28.7 ng/g. It also gave a concentration at […] ([8]; male, SD, rat, plasma, oral, 2 mg/mL, time 00:15:00, individual replicates, read-out: Plasma) of 0 ng/mL, a concentration at 0.5 h ([8]; male, SD, rat, plasma, oral, 2 mg/mL, time 0:30:00, individual replicates, read-out: Plasma) of 0 ng/mL and a Brain [8, 9] of 0 ng/g. The Plasma [8, 9] was 0 ng/mL, the Brain [8, 10] was 0 ng/g and the Plasma [8, 10] was 0 ng/mL. The B/P ratio [8, 11] was 0.033 and 0.167 and 0.126, the Brain [8, 11] was 3.39 ng/g and 9.12 ng/g and 2.65 ng/g and the Plasma [8, 11] was 20.3 ng/mL and 72.3 ng/mL and 80.8 ng/mL. For the same compound, the B/P ratio [8, 12] was 0.395 and 0.077 and 0.505, the Brain [8, 12] was 7.24 ng/g and 13.5 ng/g and 6 ng/g and the Plasma [8, 12] was 94 ng/mL and 26.7 ng/mL and 15.2 ng/mL. The B/P ratio [8, 13] was 0.137 and 0.126 and 1.648, the Brain [8, 13] was 27.2 ng/g and 13.5 ng/g and 7.16 ng/g and the Plasma [8, 13] was 216 ng/mL and 8.18 ng/mL and 52.2 ng/mL. The B/P ratio [8, 14] was 0.074 and 0.166 and 2.055, the Brain [8, 14] was 19.9 ng/g and 24 ng/g and 4.36 ng/g and the Plasma [8, 14] was 120 ng/mL and 11.7 ng/mL and 58.6 ng/mL. The B/P ratio [8, 15] was 0.112 and 3.845 and 0.261, the Brain [8, 15] was 16.8 ng/g and 20.2 ng/g and the Plasma [8, 15] was 7.47 ng/mL and 64.3 ng/mL and 180 ng/mL. For the same compound, the B/P ratio [8, 16] was 10.245 and 0.957 and 6.289, the Brain [8, 16] was 61.6 ng/g and 20 ng/g and 36 ng/g and the Plasma [8, 16] was 64.4 ng/mL and 3.18 ng/mL and 3.51 ng/mL.
